From the supplement of paper PMC10307832

Assays:
Test in all cases: relative viability (nuclei count vs DMSO), 5 days (fraction); higher = more cells survive
AT9283 + Olaparib = compound: O=C(Nc1c[nH]nc1-c1nc2ccc(CN3CCOCC3)cc2[nH]1)NC1CC1 [AT9283] + O=C(c1cc(Cc2n[nH]c(=O)c3ccccc23)ccc1F)N1CCN(C(=O)C2CC2)CC1 [Olaparib] (partner 8 µM)
Method in brief: (§1)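 Lung cancer cell lines, seeded in 1536-well plates, were treated the following day by pin tool with a single drug or with five library-drug doses (not always all listed) in √10 steps on top of a fixed anchor-drug dose. Cells were fixed and nuclei stained in one step after 5 days, and nuclei were counted. Relative viability is the nuclei count for treated wells divided by that for vehicle wells, reported as medians of duplicate plates.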

AT9283 + Palbociclib = compound: O=C(Nc1c[nH]nc1-c1nc2ccc(CN3CCOCC3)cc2[nH]1)NC1CC1 [AT9283] + CC(=O)c1c(C)c2cnc(Nc3ccc(N4CCNCC4)cn3)nc2n(C2CCCC2)c1=O [Palbociclib] (partner 0.5 µM)
Method in brief: as §1

AT9283 + AZD7762 = compound: O=C(Nc1c[nH]nc1-c1nc2ccc(CN3CCOCC3)cc2[nH]1)NC1CC1 [AT9283] + NC(=O)Nc1cc(-c2cccc(F)c2)sc1C(=O)N[C@H]1CCCNC1 [AZD7762] (partner 0.2 µM)
Method in brief: as §1

Erlotinib + Vorinostat = compound: C#Cc1cccc(Nc2ncnc3cc(OCCOC)c(OCCOC)cc23)c1 [Erlotinib] + O=C(CCCCCCC(=O)Nc1ccccc1)NO [Vorinostat] (partner 1 µM)
Method in brief: as §1

Erlotinib + Navitoclax = compound: C#Cc1cccc(Nc2ncnc3cc(OCCOC)c(OCCOC)cc23)c1 [Erlotinib] + CC1(C)CCC(c2ccc(Cl)cc2)=C(CN2CCN(c3ccc(C(=O)NS(=O)(=O)c4ccc(N[C@H](CCN5CCOCC5)CSc5ccccc5)c(S(=O)(=O)C(F)(F)F)c4)cc3)CC2)C1 [Navitoclax] (partner 0.5 µM)
Method in brief: as §1

Row | Cell Line | relative viability (AT9283 + Olaparib; first compound 0.003 µM) | relative viability (AT9283 + Olaparib; first compound 0.03 µM) | relative viability (AT9283 + Olaparib; first compound 0.09487 µM) | relative viability (AT9283 + Olaparib; first compound 0.3 µM) | relative viability (AT9283 + Palbociclib; first compound 0.003 µM) | relative viability (AT9283 + Palbociclib; first compound 0.03 µM) | relative viability (AT9283 + Palbociclib; first compound 0.09487 µM) | relative viability (AT9283 + Palbociclib; first compound 0.3 µM) | relative viability (AT9283 + AZD7762; first compound 0.003 µM) | relative viability (AT9283 + AZD7762; first compound 0.03 µM) | relative viability (AT9283 + AZD7762; first compound 0.09487 µM) | relative viability (AT9283 + AZD7762; first compound 0.3 µM) | relative viability (Erlotinib + Vorinostat; first compound 0.02 µM) | relative viability (Erlotinib + Vorinostat; first compound 0.2 µM) | relative viability (Erlotinib + Vorinostat; first compound 0.6325 µM) | relative viability (Erlotinib + Vorinostat; first compound 2 µM) | relative viability (Erlotinib + Navitoclax; first compound 0.02 µM) | relative viability (Erlotinib + Navitoclax; first compound 0.2 µM) | relative viability (Erlotinib + Navitoclax; first compound 0.6325 µM) | relative viability (Erlotinib + Navitoclax; first compound 2 µM)
1 | RERF-LC-KJ | 0.962 | 0.485 | 0.267 | 0.237 | 1.17 | 0.77 | 0.475 | 0.302 | 0.836 | 0.578 | 0.387 | 0.243 | 0.716 | 0.605 | 0.624 | 0.453 | 0.861 | 0.663 | 0.583 | 0.771
2 | NCI-H1944 | 0.401 | 0.361 | 0.205 | 0.206 | 0.336 | 0.241 | 0.188 | 0.172 | 0.594 | 0.246 | 0.184 | 0.125 | 0.497 | 0.388 | 0.48 | 0.35 | 0.989 | 0.912 | 0.941 | 0.796
3 | HOP-62 | 0.514 | 0.308 | 0.137 | 0.201 | 0.468 | 0.405 | 0.188 | 0.197 | 0.561 | 0.143 | 0.161 | 0.199 | 0.714 | 0.492 | 0.759 | 0.716 | 1.08 |  | 1.19 | 1.05
4 | NCI-H1755 | 0.987 | 0.859 | 0.53 | 0.45 | 0.434 | 0.463 | 0.469 | 0.499 | 0.466 | 0.401 | 0.326 | 0.267 | 0.827 | 0.762 | 0.772 | 0.716 | 1.02 | 1 | 0.976 | 
5 | NCI-H2126 | 0.978 | 0.938 | 0.698 | 0.364 | 0.341 | 0.35 | 0.365 | 0.272 | 0.979 | 1.05 | 0.969 | 0.339 | 0.688 | 0.529 | 0.438 | 0.416 | 0.879 | 0.707 | 0.537 | 0.402
6 | NCI-H1793 | 0.986 | 0.841 | 0.451 | 0.257 | 0.275 | 0.329 | 0.298 | 0.255 | 0.564 | 0.495 | 0.233 | 0.185 | 0.841 | 0.36 | 0.551 | 0.441 | 0.447 | 0.325 | 0.297 | 0.387
7 | A-427 | 0.652 | 0.428 | 0.292 | 0.27 | 0.523 | 0.39 | 0.299 | 0.3 | 0.675 | 0.306 | 0.227 | 0.269 | 0.844 | 0.834 | 0.932 | 0.892 | 0.946 | 0.99 | 0.978 | 0.997
